Where a name gives a salt, the structure may show the parent alone.
Legend:
JAK3 tyrosine kinase = molecular target: T1, JAK3 tyrosine kinase (Homo sapiens, UniProt P52333); assay: Test 1: inhibitory activity to JAK3 tyrosine kinase (ELISA); assay type: biochemical; details: 25 μM ATP in substrate solution, 30° C. for 1 hour, n=2
T1 construct: purchased Carnabioscience Co
T1 sequence (P52333 1-1124): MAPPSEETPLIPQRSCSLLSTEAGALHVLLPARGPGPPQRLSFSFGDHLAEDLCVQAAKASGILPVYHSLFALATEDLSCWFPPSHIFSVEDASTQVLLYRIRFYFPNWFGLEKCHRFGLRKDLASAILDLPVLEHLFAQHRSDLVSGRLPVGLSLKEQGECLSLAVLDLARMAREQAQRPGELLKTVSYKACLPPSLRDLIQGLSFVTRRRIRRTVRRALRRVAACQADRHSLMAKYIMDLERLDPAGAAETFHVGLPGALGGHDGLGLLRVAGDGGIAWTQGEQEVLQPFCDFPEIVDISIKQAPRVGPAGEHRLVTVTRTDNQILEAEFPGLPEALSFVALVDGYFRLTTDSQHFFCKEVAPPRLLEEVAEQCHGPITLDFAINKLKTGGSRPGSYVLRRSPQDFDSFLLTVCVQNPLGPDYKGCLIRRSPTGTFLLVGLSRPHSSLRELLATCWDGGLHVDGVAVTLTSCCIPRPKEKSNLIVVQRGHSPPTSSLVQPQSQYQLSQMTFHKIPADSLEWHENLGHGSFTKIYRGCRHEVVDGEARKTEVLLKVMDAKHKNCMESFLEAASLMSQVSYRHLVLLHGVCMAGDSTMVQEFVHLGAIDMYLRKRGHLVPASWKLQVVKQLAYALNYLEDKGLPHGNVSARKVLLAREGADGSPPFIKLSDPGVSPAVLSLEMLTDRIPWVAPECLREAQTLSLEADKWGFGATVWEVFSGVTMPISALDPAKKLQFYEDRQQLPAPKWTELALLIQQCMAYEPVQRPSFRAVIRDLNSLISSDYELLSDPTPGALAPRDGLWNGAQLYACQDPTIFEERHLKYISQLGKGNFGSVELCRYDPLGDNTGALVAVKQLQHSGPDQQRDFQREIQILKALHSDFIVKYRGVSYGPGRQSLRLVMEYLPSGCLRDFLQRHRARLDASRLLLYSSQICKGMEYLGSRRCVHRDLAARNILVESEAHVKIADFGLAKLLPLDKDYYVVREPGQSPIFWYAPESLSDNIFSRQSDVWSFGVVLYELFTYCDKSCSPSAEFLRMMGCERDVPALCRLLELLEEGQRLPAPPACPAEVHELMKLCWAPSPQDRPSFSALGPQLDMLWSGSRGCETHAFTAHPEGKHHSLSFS
Procedure, shortened: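 ELISA of JAK3 kinase activity with absorbance read at 450 nm. Compounds were tested from DMSO dilution series at 100-fold the measurement concentrations (1000–0.01 μM), diluted up to 20 times in assay buffer, against a DMSO negative control. IC50 was estimated by non-linear regression of absorbance.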

JAK2 tyrosine kinase = molecular target: T2, JAK2 tyrosine kinase (Homo sapiens, UniProt O60674); assay: Test 1: inhibitory activity to JAK2 tyrosine kinase (ELISA); assay type: biochemical; details: 25 μM ATP in substrate solution, 30° C. for 1 hour, n=2
T2 construct: purchased Carnabioscience Co
Procedure, shortened: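 Human JAK2 (diluted to 0.75 nM before addition) phosphorylated a biotinylated peptide on streptavidin plates for 1 h at 30 °C. The substrate mix held 625 nM peptide, 25 μM ATP and 25 mM MgCl2 in 15 mM Tris pH 7.5, 0.01% Tween-20 and 1 mM DTT. Phosphotyrosine was detected by HRP antibody/TMB at 450 nm, and IC50 was obtained by non-linear regression; duplicates were run.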

T2 sequence (O60674 whole entry): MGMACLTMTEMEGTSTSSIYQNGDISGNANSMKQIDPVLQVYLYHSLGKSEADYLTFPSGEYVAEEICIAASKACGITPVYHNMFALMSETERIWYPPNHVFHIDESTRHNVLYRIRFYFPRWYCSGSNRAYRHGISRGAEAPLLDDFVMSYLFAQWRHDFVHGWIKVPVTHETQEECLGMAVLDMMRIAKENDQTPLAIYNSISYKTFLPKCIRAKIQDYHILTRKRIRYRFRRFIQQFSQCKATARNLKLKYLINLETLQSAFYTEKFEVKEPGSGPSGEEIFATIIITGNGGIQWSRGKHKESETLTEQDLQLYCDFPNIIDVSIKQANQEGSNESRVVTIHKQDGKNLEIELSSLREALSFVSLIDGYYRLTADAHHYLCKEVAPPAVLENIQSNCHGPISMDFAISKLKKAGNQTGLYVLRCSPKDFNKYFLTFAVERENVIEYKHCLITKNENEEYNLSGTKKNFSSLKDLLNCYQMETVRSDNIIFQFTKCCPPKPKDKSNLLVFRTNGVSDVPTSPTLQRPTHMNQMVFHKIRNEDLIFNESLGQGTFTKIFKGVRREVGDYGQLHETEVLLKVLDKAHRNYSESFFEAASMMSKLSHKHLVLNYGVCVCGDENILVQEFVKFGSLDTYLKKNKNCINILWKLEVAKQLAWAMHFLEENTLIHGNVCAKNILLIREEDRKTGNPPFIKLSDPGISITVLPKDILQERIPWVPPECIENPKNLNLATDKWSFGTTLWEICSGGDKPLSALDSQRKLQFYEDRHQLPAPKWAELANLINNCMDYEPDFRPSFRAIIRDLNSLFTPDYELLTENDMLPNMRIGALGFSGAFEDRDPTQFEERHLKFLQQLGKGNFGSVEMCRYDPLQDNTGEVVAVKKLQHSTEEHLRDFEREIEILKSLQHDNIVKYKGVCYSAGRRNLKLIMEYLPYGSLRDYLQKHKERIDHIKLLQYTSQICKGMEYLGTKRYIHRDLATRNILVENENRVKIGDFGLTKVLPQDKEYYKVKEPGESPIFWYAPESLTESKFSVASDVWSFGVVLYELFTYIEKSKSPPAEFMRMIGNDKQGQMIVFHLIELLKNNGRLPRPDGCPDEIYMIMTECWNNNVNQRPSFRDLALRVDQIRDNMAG

IC50 (JAK3 tyrosine kinase)	IC50 (JAK2 tyrosine kinase)	SMILES
170 nM	2.8 nM	C[C@H](Nc1cc(N2CC(C)(O)C2)cc(Nc2cnccn2)n1)c1ccc(F)cc1 [Example 205, (S)-1-{2-[1-(4-Fluorophenyl)ethylamino]-6-(pyrazin-2-ylamino)pyridin-4-yl}-3-methylazetidin-3-ol hydrochloride]
110 nM	2.2 nM	C[C@H](Nc1nc(Nc2cnccn2)cc(OCCO)n1)c1ccc(F)cc1 [Example 95, (S)-2-{2-[1-(4-Fluorophenyl)ethylamino]-6-(pyrazin-2-ylamino)pyrimidin-4-yloxy}ethanol hydrochloride]
1800 nM	22 nM	C[C@H](Nc1nc(Nc2cnccn2)cc(-c2nccs2)n1)c1ccc(F)cc1 [Example 54, (S)—N^2-[1-(4-Fluorophenyl)ethyl]-N^4-(pyrazin-2-yl)-6-(thiazol-2-yl)pyrimidine-2,4-diamine]
160 nM	15 nM	COC1(C(C)C)CN(c2cc(Nc3cnccn3)nc(N[C@@H](C)c3ccc(F)cc3)c2)C1 [Example 212, (S)—N^2-[1-(4-Fluorophenyl)ethyl]-4-(3-isopropyl-3-methoxyazetidin-1-yl)-N^6-(pyrazin-2-yl)pyridine-2,6-diamine hydrochloride]
90 nM	0.93 nM	C[C@H](Nc1cc(N2CCOCC2)cc(Nc2cnccn2)n1)c1ccc(F)cc1 [Example 39, (S)—N^2-[1-(4-Fluorophenyl)ethyl]-4-morpholine-N^6-(pyrazin-2-yl)pyridine-2,6-diamine]
35 nM	0.8 nM	C[C@H](Nc1nc(Nc2cnccn2)cc(N2CC(C(=O)N3CCCC3)C2)n1)c1ccc(F)cc1 [Example 193, (S)-(1-{2-[1-(4-Fluorophenyl)ethylamino]-6-(pyrazin-2-ylamino)pyrimidin-4-yl}azetidin-3-yl)(pyrrolidin-1-yl)methanone]
110 nM	1.9 nM	C[C@H](Nc1nc(NCc2ccccn2)cc(Nc2cnccn2)n1)c1ccc(F)cc1 [Example 106, (S)—N^2-[1-(4-Fluorophenyl)ethyl]-N^4-(pyrazin-2-yl)-N^6-(pyridin-2-ylmethyl)pyrimidine-2,4,6-triamine]
110 nM	1.6 nM	C[C@H](Nc1nc(Nc2cnccn2)cc(N2CCC3(CC2)OCCO3)n1)c1ccc(F)cc1 [Example 111, N^2-[(S)-1-(4-Fluorophenyl)ethyl]-N^4-(pyrazin-2-yl)-6-(1,4-dioxa-8-azaspiro[4.5]decan-8-yl)pyrimidine-2,4-diamine]
950 nM	8.7 nM	C[C@H](Nc1nc(Nc2cnccn2)cc(N2CCNC2=O)n1)c1ccc(F)cc1 [Example 21, (S)-1-{2-[1-(4-Fluorophenyl)ethylamino]-6-(pyrazin-2-ylamino)pyrimidin-4-yl}imidazolidin-2-one hydrochloride]
630 nM	8 nM	C[C@H](Nc1nc(Nc2cnccn2)cc(N2CCCC2=O)n1)c1ccc(F)cc1 [Example 16, (S)-1-{2-[1-(4-Fluorophenyl)ethylamino]-6-(pyrazin-2-ylamino)pyrimidin-4-yl}pyrrolidin-2-one]
200 nM	2.8 nM	C[C@H](Nc1cc(-c2ccc(S(C)(=O)=O)cc2)cc(Nc2cnccn2)n1)c1ccc(F)cc1 [Example 36, (S)—N^2-[1-(4-Fluorophenyl)ethyl]-4-[4-(methylsulfonyl)phenyl]-N^6-(pyrazin-2-yl)pyridine-2,6-diamine hydrochloride]
36 nM	1.5 nM	COCCn1cc(-c2cc(Nc3cnccn3)nc(N[C@@H](C)c3ccc(F)cc3)c2)cn1 [Example 217, (S)—N^2-[1-(4-Fluorophenyl)ethyl]-4-[1-(2-methoxyethyl)-1H-pyrazol-4-yl]-N^6-(pyrazin-2-yl)pyridine-2,6-diamine]
360 nM	10 nM	C[C@H](Nc1cc(N2CC(O)(C(F)(F)F)C2)cc(Nc2cnccn2)n1)c1ccc(F)cc1 [Example 206, (S)-1-{2-[1-(4-Fluorophenyl)ethylamino]-6-(pyrazin-2-ylamino)pyridin-4-yl}-3-(trifluoromethyl)azetidin-3-ol hydrochloride]
470 nM	11 nM	C[C@H](Nc1nc(Nc2cnccn2)cc(N2C[C@H](O)CC2=O)n1)c1ccc(F)cc1 [Example 67, (R)-1-{2-[(S)-1-(4-Fluorophenyl)ethylamino]-6-(pyrazin-2-ylamino)pyrimidin-4-yl}-4-hydroxypyrrolidin-2-one]
85 nM	2.3 nM	CC(=O)N[C@H]1CCN(c2cc(Nc3cnccn3)nc(N[C@@H](C)c3ccc(F)cc3)c2)C1 [Example 38, N-{(S)-1-[2-{[(S)-1-(4-Fluorophenyl)ethyl]amino}-6-(pyrazin-2-ylamino)pyridin-4-yl]pyrrolidin-3-yl}acetamide hydrochloride]
83 nM	2.6 nM	C[C@H](Nc1nc(Nc2cnccn2)cc(N2CCC[C@H]2CO)n1)c1ccc(F)cc1 [Example 69, ((S)-1-{2-[(S)-1-(4-Fluorophenyl)ethylamino]-6-(pyrazin-2-ylamino)pyrimidin-4-yl}pyrrolidin-2-yl)methanol]
200 nM	2.4 nM	CC(C)[C@@H](CO)Nc1cc(Nc2cnccn2)nc(N[C@@H](C)c2ccc(F)cc2)n1 [Example 99, (S)-2-{2-[(S)-1-(4-Fluorophenyl)ethylamino]-6-(pyrazin-2-ylamino)pyrimidin-4-ylamino}-3-methylbutan-1-ol hydrochloride]
84 nM	0.79 nM	COCCNC(=O)C1CN(c2cc(Nc3cnccn3)nc(N[C@@H](C)c3ccc(F)cc3)n2)C1 [Example 194, (S)-1-{2-[1-(4-Fluorophenyl)ethylamino]-6-(pyrazin-2-ylamino)pyrimidin-4-yl}-N-(2-methoxyethyl) azetidine-3-carboxamide]
58 nM	1.2 nM	CCS(=O)(=O)NC1CN(c2cc(Nc3cnccn3)nc(N[C@@H](C)c3ccc(F)cc3)n2)C1 [Example 190, (S)—N-(1-{2-[1-(4-Fluorophenyl)ethylamino]-6-(pyrazin-2-ylamino)pyrimidin-4-yl}azetidin-3-yl)ethanesulfonamide]
64 nM	1.6 nM	C[C@H](Nc1nc(Nc2cnccn2)cc(N2CC(C(=O)NCCO)C2)n1)c1ccc(F)cc1 [Example 199, (S)-1-{2-[1-(4-Fluorophenyl)ethylamino]-6-(pyrazin-2-ylamino)pyrimidin-4-yl}-N-(2-hydroxyethyl)azetidine-3-carboxamide]
570 nM	1.9 nM	C[C@H](Nc1cc(C(=O)NCC(F)(F)F)cc(Nc2cnccn2)n1)c1ccc(F)cc1 [Example 171, (S)-2-[1-(4-Fluorophenyl)ethylamino]-6-(pyrazin-2-ylamino)-N-(2,2,2-trifluoroethyl) isonicotinamide]
30 nM	0.4 nM	CC(=O)N[C@H]1CCN(c2cc(Nc3cnccn3)nc(N[C@@H](C)c3ccc(F)cc3)n2)C1 [Example 33, N-{(S)-1-[2-{[(S)-1-(4-Fluorophenyl)ethyl]amino}-6-(pyrazin-2-ylamino)pyrimidin-4-yl]pyrrolidin-3-yl}acetamide maleate]
130 nM	3.2 nM	COC1(C)CN(c2cc(Nc3cnccn3)nc(N[C@@H](C)c3ccc(F)cc3)c2)C1 [Example 213, (S)—N^2-[1-(4-Fluorophenyl)ethyl]-4-(3-methoxy-3-methylazetidin-1-yl)-N^6-(pyrazin-2-yl)pyridine-2,6-diamine hydrochloride]
